Test results: ChEMBL document CHEMBL5465560, “Selectivity Literature for EUbOPEN Chemogenomic Library” (2024)

Key:
[1] = target: Mitogen-activated protein kinase 14 (Homo sapiens, UniProt Q16539); assay: Selectivity interaction (KinomeScan (DiscoverX)) EUB0000229b MAPK14; settings: at 10 µM
[2] = test system: Mast/stem cell growth factor receptor Kit (Homo sapiens), P10721 [V559D]; assay: (§1) Selectivity interaction (KinomeScan (DiscoverX)) EUB0000229b KIT; settings: at 1 µM
[3] = test system: Mast/stem cell growth factor receptor Kit (Homo sapiens), P10721 [V559D,V654A]; assay: as §1; settings: at 1 µM
[4] = test system: Mast/stem cell growth factor receptor Kit (Homo sapiens), P10721 [V559D,T670I]; assay: as §1; settings: at 1 µM
[5] = test system: Mast/stem cell growth factor receptor Kit (Homo sapiens), P10721 [A829P]; assay: as §1; settings: at 1 µM
[6] = test system: Mast/stem cell growth factor receptor Kit (Homo sapiens), P10721 [D816H]; assay: as §1; settings: at 1 µM
[7] = test system: Mast/stem cell growth factor receptor Kit (Homo sapiens), P10721 [L576P]; assay: as §1; settings: at 1 µM
[8] = target: Mast/stem cell growth factor receptor Kit (Homo sapiens, UniProt P10721); assay: as §1; settings: at 10 µM
[9] = test system: Mast/stem cell growth factor receptor Kit (Homo sapiens), P10721 [D816V]; assay: as §1; settings: at 1 µM
[10] = target: T1, Serine/threonine-protein kinase TAO1 (Homo sapiens) (UniProt Q7L7X3); settings: at 10 µM
T1 sequence (whole entry): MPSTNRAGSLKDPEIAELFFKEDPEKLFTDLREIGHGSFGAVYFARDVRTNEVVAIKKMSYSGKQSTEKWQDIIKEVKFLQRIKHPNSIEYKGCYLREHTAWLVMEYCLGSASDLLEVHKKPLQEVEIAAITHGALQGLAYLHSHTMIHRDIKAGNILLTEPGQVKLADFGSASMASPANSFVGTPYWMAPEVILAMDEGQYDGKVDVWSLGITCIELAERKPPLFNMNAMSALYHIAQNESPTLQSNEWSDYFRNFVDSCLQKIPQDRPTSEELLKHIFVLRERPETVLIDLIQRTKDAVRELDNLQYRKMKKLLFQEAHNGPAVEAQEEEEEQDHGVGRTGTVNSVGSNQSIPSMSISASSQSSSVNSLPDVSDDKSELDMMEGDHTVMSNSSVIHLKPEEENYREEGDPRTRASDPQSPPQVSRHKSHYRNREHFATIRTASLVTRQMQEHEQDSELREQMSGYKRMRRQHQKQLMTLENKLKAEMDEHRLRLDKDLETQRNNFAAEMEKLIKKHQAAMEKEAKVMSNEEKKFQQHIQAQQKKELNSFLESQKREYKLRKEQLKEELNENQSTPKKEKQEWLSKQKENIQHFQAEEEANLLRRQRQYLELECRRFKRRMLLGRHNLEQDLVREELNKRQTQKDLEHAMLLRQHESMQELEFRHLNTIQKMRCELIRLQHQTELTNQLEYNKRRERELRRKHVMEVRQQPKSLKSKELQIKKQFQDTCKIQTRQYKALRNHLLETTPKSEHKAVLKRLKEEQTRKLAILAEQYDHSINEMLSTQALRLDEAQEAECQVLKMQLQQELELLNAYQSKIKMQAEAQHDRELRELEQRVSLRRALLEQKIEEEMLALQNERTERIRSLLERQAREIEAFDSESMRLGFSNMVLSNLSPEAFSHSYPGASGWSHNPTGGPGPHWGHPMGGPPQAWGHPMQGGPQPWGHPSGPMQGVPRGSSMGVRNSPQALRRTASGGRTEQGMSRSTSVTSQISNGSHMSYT

[11] = target: Tyrosine-protein kinase Srms (Homo sapiens) (UniProt Q9H3Y6); assay: Selectivity interaction (KinomeScan (DiscoverX)) EUB0001049a SRMS; settings: at 1 µM
[12] = target: T2, Serine/threonine-protein kinase Nek9 (Homo sapiens) (UniProt Q8TD19); assay: Selectivity interaction (ActivX KiNativ screen (ex vivo kinase selectivity in human PBMCs)) EUB0001619a NEK9; format: cell-based; settings: PBMC, at 1 µM
T2 sequence (whole entry): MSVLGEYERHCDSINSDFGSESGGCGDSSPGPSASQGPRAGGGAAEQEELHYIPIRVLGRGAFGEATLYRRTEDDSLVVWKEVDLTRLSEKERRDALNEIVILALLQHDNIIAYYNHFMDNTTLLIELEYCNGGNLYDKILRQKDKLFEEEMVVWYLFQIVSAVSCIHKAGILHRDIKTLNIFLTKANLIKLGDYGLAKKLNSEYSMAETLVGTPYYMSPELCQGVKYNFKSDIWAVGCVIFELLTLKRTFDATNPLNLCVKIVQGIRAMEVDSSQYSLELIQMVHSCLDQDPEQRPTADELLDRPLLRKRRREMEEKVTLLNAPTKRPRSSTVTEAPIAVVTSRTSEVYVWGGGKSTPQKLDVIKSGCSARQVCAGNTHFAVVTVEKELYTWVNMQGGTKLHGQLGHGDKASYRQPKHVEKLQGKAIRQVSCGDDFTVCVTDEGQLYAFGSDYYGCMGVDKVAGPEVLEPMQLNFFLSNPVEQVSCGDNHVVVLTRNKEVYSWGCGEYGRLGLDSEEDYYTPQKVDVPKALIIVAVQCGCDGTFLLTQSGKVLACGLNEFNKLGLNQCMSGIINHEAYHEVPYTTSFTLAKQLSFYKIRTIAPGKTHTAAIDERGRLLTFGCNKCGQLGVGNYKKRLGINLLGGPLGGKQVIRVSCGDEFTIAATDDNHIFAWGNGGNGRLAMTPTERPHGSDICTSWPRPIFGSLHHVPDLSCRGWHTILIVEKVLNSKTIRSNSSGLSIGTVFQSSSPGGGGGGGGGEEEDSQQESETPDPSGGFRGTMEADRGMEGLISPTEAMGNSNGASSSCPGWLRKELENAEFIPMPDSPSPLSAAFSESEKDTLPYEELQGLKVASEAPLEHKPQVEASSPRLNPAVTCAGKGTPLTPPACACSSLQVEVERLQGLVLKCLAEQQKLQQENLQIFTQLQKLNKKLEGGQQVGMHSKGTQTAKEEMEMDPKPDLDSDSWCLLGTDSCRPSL

[13] = target: Myosin light chain kinase, smooth muscle (Homo sapiens, UniProt Q15746); assay: Selectivity interaction (KinomeScan (DiscoverX)) EUB0000655a MYLK; settings: at 10 µM
Chain of Myosin light chain kinase, smooth muscle (Q15746 whole entry): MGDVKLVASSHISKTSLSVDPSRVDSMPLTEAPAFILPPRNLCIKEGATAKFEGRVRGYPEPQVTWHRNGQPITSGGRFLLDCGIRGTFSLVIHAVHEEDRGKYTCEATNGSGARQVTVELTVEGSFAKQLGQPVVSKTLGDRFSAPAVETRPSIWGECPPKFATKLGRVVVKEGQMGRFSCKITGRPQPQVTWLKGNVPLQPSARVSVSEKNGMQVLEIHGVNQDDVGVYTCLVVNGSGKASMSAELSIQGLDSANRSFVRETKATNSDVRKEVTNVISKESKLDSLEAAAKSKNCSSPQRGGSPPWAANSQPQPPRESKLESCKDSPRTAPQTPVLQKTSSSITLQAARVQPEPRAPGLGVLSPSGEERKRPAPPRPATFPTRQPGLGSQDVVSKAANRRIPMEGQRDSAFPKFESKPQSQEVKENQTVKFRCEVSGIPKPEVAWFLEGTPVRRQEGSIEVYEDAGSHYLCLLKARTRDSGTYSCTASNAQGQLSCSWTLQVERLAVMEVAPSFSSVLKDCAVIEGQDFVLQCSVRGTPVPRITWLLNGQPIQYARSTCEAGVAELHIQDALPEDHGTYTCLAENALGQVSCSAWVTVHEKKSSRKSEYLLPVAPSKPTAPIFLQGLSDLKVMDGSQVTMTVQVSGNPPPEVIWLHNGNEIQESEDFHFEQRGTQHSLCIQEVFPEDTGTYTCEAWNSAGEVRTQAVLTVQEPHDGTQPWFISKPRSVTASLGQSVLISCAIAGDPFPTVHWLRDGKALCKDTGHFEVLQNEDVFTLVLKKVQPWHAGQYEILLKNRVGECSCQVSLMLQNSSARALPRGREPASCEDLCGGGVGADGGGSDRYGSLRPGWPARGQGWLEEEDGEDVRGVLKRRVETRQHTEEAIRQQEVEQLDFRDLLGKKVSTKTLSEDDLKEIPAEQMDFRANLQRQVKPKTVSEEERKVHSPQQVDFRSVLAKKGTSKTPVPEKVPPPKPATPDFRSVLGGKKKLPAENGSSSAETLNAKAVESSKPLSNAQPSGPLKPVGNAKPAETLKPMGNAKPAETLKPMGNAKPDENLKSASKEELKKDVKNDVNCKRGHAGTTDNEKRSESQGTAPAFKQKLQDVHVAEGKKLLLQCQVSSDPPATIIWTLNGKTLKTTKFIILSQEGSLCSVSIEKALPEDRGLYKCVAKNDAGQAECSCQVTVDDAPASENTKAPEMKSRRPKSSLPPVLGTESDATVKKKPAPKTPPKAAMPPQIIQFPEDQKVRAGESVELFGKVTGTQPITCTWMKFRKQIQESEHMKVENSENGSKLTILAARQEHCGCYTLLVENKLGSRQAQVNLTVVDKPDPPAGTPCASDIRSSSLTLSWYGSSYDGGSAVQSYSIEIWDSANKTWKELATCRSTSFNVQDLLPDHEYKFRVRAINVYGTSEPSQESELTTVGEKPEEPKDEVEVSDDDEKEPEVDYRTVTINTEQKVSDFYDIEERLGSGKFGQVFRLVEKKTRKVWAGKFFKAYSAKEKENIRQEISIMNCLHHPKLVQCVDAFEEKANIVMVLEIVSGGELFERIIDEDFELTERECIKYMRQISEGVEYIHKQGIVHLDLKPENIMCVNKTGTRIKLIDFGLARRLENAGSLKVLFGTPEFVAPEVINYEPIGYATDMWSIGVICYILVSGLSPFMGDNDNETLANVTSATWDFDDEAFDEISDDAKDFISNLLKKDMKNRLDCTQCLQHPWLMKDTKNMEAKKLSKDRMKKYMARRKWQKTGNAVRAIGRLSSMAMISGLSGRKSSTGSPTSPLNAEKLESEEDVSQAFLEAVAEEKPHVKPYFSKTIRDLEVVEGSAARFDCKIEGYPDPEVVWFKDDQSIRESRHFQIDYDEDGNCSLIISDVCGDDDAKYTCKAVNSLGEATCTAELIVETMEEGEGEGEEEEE

Chain of Mast/stem cell growth factor receptor Kit (Homo sapiens), P10721 [V559D,V654A] (P10721 whole entry V559D/V654A): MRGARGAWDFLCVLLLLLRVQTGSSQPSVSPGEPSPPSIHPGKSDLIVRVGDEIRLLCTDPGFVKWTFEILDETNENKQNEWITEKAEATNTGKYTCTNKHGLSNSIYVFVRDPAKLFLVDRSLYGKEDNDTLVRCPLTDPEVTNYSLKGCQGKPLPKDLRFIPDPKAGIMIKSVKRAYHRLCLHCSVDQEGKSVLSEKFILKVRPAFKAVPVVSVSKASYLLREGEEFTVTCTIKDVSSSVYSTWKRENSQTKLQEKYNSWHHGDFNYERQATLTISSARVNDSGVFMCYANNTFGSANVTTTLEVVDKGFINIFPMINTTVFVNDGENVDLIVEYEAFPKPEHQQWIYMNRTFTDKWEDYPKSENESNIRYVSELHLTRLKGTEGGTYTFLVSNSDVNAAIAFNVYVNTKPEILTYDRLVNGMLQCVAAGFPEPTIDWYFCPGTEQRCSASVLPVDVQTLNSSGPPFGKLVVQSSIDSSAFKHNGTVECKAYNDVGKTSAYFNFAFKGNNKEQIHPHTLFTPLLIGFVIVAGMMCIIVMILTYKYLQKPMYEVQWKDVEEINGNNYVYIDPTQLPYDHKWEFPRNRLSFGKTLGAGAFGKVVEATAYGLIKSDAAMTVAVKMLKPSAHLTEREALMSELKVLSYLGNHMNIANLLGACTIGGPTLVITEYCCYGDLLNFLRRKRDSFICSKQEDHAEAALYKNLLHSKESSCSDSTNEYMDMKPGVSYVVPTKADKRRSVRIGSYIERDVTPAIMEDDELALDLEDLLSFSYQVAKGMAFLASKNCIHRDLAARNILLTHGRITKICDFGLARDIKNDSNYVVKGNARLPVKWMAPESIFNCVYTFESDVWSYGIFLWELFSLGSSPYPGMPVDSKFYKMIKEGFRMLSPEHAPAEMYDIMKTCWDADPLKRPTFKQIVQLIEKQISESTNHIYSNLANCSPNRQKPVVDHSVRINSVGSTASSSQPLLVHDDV
Chain of Mitogen-activated protein kinase 14 (Q16539 whole entry): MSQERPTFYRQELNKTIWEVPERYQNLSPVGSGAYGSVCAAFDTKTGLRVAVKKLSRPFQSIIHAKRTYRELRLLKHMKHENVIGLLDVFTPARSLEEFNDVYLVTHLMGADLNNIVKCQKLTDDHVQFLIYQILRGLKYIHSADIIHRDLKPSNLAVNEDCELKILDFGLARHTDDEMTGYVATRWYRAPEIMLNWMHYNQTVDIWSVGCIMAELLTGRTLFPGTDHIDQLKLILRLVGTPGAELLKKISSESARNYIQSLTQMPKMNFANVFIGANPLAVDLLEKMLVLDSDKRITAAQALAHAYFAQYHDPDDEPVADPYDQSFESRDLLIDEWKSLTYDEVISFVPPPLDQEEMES
Chain of Mast/stem cell growth factor receptor Kit (Homo sapiens), P10721 [V559D,T670I] (P10721 whole entry V559D/T670I): as the sequence (P10721 whole entry V559D/V654A) above, with A654V, T670I counted along it
Chain of Mast/stem cell growth factor receptor Kit (Homo sapiens), P10721 [L576P] (P10721 whole entry L576P): as the sequence (P10721 whole entry V559D/V654A) above, with D559V, L576P, A654V counted along it
Chain of Tyrosine-protein kinase Srms (Homo sapiens) (Q9H3Y6 whole entry): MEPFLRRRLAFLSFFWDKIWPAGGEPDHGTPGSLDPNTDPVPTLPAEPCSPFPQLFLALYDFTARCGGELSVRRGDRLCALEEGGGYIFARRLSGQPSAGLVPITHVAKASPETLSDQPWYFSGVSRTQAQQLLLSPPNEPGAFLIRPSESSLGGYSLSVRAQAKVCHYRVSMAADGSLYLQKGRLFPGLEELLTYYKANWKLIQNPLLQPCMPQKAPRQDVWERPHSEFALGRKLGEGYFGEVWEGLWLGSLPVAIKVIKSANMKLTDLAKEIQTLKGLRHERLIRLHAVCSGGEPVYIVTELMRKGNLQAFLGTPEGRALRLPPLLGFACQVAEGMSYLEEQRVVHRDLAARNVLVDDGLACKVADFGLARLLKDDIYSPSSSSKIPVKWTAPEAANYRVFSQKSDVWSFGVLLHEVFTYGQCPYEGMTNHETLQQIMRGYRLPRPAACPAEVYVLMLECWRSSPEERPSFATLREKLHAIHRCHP
Chain of Mast/stem cell growth factor receptor Kit (Homo sapiens), P10721 [D816V] (P10721 whole entry D816V): as the sequence (P10721 whole entry V559D/V654A) above, with D559V, A654V, D816V counted along it
Chain of Mast/stem cell growth factor receptor Kit (P10721 whole entry): as the sequence (P10721 whole entry V559D/V654A) above, with D559V, A654V counted along it
Chain of Mast/stem cell growth factor receptor Kit (Homo sapiens), P10721 [D816H] (P10721 whole entry D816H): as the sequence (P10721 whole entry V559D/V654A) above, with D559V, A654V, D816H counted along it
Chain of Mast/stem cell growth factor receptor Kit (Homo sapiens), P10721 [A829P] (P10721 whole entry A829P): as the sequence (P10721 whole entry V559D/V654A) above, with D559V, A654V, A829P counted along it
Chain of Mast/stem cell growth factor receptor Kit (Homo sapiens), P10721 [V559D] (P10721 whole entry V559D): as the sequence (P10721 whole entry V559D/V654A) above, with A654V counted along it

With `COc1cc(N(C)c2ccnc3ccc(C(F)(F)F)cc23)cc(OC)c1OC` as the molecule, how does the % binding [1] read?
The % binding was 81%.

And the % binding [2]?
The % binding was 95%.

What about the % binding [3] of the same molecule?
Its % binding is 100%.

What about the % binding [4] of the same molecule?
The % binding was 94%.

And the % binding [5]?
Its % binding is 72%.

And the % binding [6]?
Its % binding is 79%.

And the % binding [7]?
Its % binding is 100%.

And the % binding [8]?
Its % binding is 84%.

What about the % binding [9] of the same molecule?
The % binding was 95%.

`Cc1cc([C@@H](C)Nc2ccccc2C(=O)O)c2nc(N3CCOCC3)cc(=O)n2c1` [AZD-6482] was tested. Which % of control [10] did it give?
The % of control was 59%.

`COc1cc(Nc2nc(C)cc(-c3cnn4nc(OC)ccc34)n2)cc(C(F)(F)F)c1` was tested. Which % of control [11] did it give?
The % of control was 66%.

Which % of inhibition [12] does the source give for `N#Cc1cccc(-c2c[nH]c3ncnc(N4CCOCC4)c23)c1` here?
Its % of inhibition is 1%.

How did the % of control [13] turn out when `CN(C)CCOc1ccc(-c2nc(-c3ccncc3)c(-c3ccc4c(c3)CC/C4=N\O)[nH]2)cc1` was run?
The % of control was 51%.
